Source: US12077503B2, “Substituted cyclic amides and their use as herbicides” (FMC CORPORATION, priority 2015, dated 2024)

How the values were obtained:
Assay type in all cases: in vivo
Kochia (Kochia scoparia) [1] = experiment: Test A preemergence; details: Bassia scoparia, pre-emergence, 240 h, Preemergence
Method in brief: (§1)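 Visual injury, scored on a 0–100 scale relative to untreated controls, was recorded about 10 d after application. Treatments were a preemergence soil spray over planted seeds or a postemergence spray on plants at the one- to two-leaf stage, 2 to 10 cm tall, all in loam soil–sand blend in the greenhouse.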

[2] = test system: barnyardgrass (Echinochloa crus-galli); experiment: Test A preemergence; details: Echinochloa crus-galli, pre-emergence, 240 h, Preemergence
Method in brief: as §1

[3] = test system: giant foxtail (Setaria faberii); experiment: Test A preemergence; details: Setaria faberi, pre-emergence, 240 h, Preemergence
Method in brief: as §1

[4] = test system: pigweed (Amaranthus retroflexus); experiment: Test A preemergence; details: Amaranthus retroflexus, pre-emergence, 240 h, Preemergence
[5] = test system: ragweed (common ragweed, Ambrosia elatior); experiment: Test A preemergence; details: Ambrosia artemisiifolia, pre-emergence, 240 h, Preemergence
Method in brief: as §1

[6] = test system: ryegrass, Italian (Italian ryegrass, Lolium multiflorum); experiment: Test A preemergence; details: Lolium multiflorum, pre-emergence, 240 h, Preemergence
Method in brief: as §1

Kochia (Kochia scoparia) [7] = experiment: Test A postemergence; details: Bassia scoparia, post-emergence, 240 h, Postemergence, read-out: Kochia plant response rating (0 to 100 scale)
Method in brief: as §1

[8] = test system: barnyardgrass (Echinochloa crus-galli); experiment: Test A postemergence; details: Echinochloa crus-galli, post-emergence, 240 h, Postemergence
Method in brief: as §1

[9] = test system: blackgrass (Alopecurus myosuroides); experiment: Test A postemergence; details: Alopecurus myosuroides, post-emergence, 240 h, Postemergence, read-out: Blackgrass plant response rating (0 to 100 scale)
Method in brief: as §1

corn (Zea mays) = experiment: Test A postemergence; details: Zea mays, post-emergence, 240 h, Postemergence, read-out: Corn plant response rating (0 to 100 scale)
Method in brief: as §1

[10] = test system: giant foxtail (Setaria faberii); experiment: Test A postemergence; details: Setaria faberi, post-emergence, 240 h, Postemergence, read-out: Foxtail, Giant plant response rating (0 to 100 scale)
Method in brief: as §1

[11] = test system: pigweed (Amaranthus retroflexus); experiment: Test A postemergence; details: Amaranthus retroflexus, post-emergence, 240 h, Postemergence, read-out: Pigweed plant response rating (0 to 100 scale)
Method in brief: as §1

[12] = test system: ragweed (common ragweed, Ambrosia elatior); experiment: Test A postemergence; details: Ambrosia artemisiifolia, post-emergence, 240 h, Postemergence, read-out: Ragweed plant response rating (0 to 100 scale)
Method in brief: as §1

[13] = test system: ryegrass, Italian (Italian ryegrass, Lolium multiflorum); experiment: Test A postemergence; details: Lolium multiflorum, post-emergence, 240 h, Postemergence, read-out: Ryegrass, Italian plant response rating (0 to 100 scale)
Method in brief: as §1

[14] = test system: wheat (Triticum aestivum); experiment: Test A postemergence; details: Triticum aestivum, post-emergence, 240 h, Postemergence, read-out: Wheat plant response rating (0 to 100 scale)
Method in brief: as §1

[15] = test system: barnyardgrass (Echinochloa crus-galli); experiment: Test B flooded paddy test; details: Echinochloa crus-galli, 360 h, Flood, 250 g ai/ha; visually evaluated after 13 to 15 d; read-out: Plant response rating, Barnyardgrass (0 to 100 scale where 0 is no effect and 100 is complete control)
Method in brief: (§2)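 Percent control, visually estimated after 13–15 d in the greenhouse on a 0–100 basis, compares treated pots with untreated ones; compound was put into paddy water 3 cm above the soil when plants had two leaves.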

[16] = test system: ducksalad (Heteranthera limosa); experiment: Test B flooded paddy test; details: Heteranthera limosa, 360 h, Flood, 250 g ai/ha; visually evaluated after 13 to 15 d; read-out: Plant response rating, Ducksalad (0 to 100 scale where 0 is no effect and 100 is complete control)
Method in brief: as §2

rice (Oryra sativa) = experiment: Test B flooded paddy test; details: Oryza sativa, 360 h, Flood, 250 g ai/ha; visually evaluated after 13 to 15 d; read-out: Plant response rating, Rice (0 to 100 scale where 0 is no effect and 100 is complete control)
Method in brief: as §2

[17] = test system: sedge, umbrella (small-flower umbrella sedge, Cyperus difformis); experiment: Test B flooded paddy test; details: Cyperus difformis, 360 h, Flood, 250 g ai/ha; visually evaluated after 13 to 15 d; read-out: Plant response rating, Sedge, Umbrella (0 to 100 scale where 0 is no effect and 100 is complete control)
Method in brief: as §2

[18] = 125 g ai/ha, visual rating about 10 d after treatment
[19] = 31 g ai/ha, 0 is no effect, 100 is complete control

Compound: Cc1ccncc1NC(=O)[C@H]1C(=O)N(C)C[C@@H]1c1ccc2c(c1)OC(F)(F)O2 [Compound 1351]
- pest or weed control at 31 g/ha (Kochia (Kochia scoparia) [1]; 31 g ai/ha, 0 to 100 scale where 0 is no effect and 100 is complete control, read-out: Kochia plant response rating): 0%
- pest or weed control at 125 g/ha (Kochia (Kochia scoparia) [1]; 125 g ai/ha, 0 to 100 scale (0 no effect, 100 complete control), read-out: Plant response rating, Kochia): 0%
- pest or weed control at 31 g/ha ([2]; 31 g ai/ha, 0 to 100 scale where 0 is no effect and 100 is complete control, read-out: Barnyardgrass plant response rating): 0%
- pest or weed control at 125 g/ha ([2]; 125 g ai/ha, 0 to 100 scale (0 no effect, 100 complete control), read-out: Plant response rating, Barnyardgrass): 0%
- pest or weed control at 31 g/ha ([3]; 31 g ai/ha, 0 to 100 scale where 0 is no effect and 100 is complete control, read-out: Foxtail, Giant plant response rating): 0%
- pest or weed control at 125 g/ha ([3]; 125 g ai/ha, 0 to 100 scale (0 no effect, 100 complete control), read-out: Plant response rating, Foxtail, Giant): 0%
- pest or weed control at 31 g/ha ([4]; 31 g ai/ha, 0 to 100 scale where 0 is no effect and 100 is complete control, read-out: Pigweed plant response rating): 0%
- pest or weed control at 125 g/ha ([4]; 125 g ai/ha, 0 to 100 scale (0 no effect, 100 complete control), read-out: Plant response rating, Pigweed): 0%
- pest or weed control at 31 g/ha ([5]; 31 g ai/ha, 0 to 100 scale where 0 is no effect and 100 is complete control, read-out: Ragweed plant response rating): 0%
- pest or weed control at 125 g/ha ([5]; 125 g ai/ha, 0 to 100 scale (0 no effect, 100 complete control), read-out: Plant response rating, Ragweed): 0%
- pest or weed control at 31 g/ha ([6]; 31 g ai/ha, 0 to 100 scale where 0 is no effect and 100 is complete control, read-out: Ryegrass, Italian plant response rating): 0%
- pest or weed control at 125 g/ha ([6]; 125 g ai/ha, 0 to 100 scale (0 no effect, 100 complete control), read-out: Plant response rating, Ryegrass, Italian): 0%
- pest or weed control at 125 g/ha (Kochia (Kochia scoparia) [7]; [18]): 0%
- pest or weed control at 31 g/ha (Kochia (Kochia scoparia) [7]; [19]): 0%
- pest or weed control at 125 g/ha ([8]; 125 g ai/ha, visual rating about 10 d after treatment, read-out: Barnyardgrass plant response rating (0 to 100 scale, 0 no effect, 100 complete control)): 0%
- pest or weed control at 31 g/ha ([8]; 31 g ai/ha, 0 is no effect, 100 is complete control, read-out: Barnyardgrass plant response rating (0 to 100 scale)): 0%
- pest or weed control at 125 g/ha [9, 18]: 0%
- pest or weed control at 31 g/ha [9, 19]: 0%
- plant injury at 125 g/ha (corn (Zea mays); [18]): 0%
- plant injury at 31 g/ha (corn (Zea mays); [19]): 0%
- pest or weed control at 125 g/ha [10, 18]: 0%
- pest or weed control at 31 g/ha [10, 19]: 0%
- pest or weed control at 125 g/ha [11, 18]: 0%
- pest or weed control at 31 g/ha [11, 19]: 0%
- pest or weed control at 125 g/ha [12, 18]: 0%
- pest or weed control at 31 g/ha [12, 19]: 0%
- pest or weed control at 125 g/ha [13, 18]: 0%
- pest or weed control at 31 g/ha [13, 19]: 0%
- plant injury at 125 g/ha [14, 18]: 0%
- plant injury at 31 g/ha [14, 19]: 0%
- pest or weed control at 250 g/ha [15]: 0%
- pest or weed control at 250 g/ha [16]: 40%
- pest or weed control at 250 g/ha (rice (Oryra sativa)): 0%
- pest or weed control at 250 g/ha [17]: 0%
